Measured values as given in US4518613A, “Thioalkanoyl-carnitines, process for their preparation and mucolytic pharmaceutical compositions containing same” (priority 1981, dated 1985).

What was measured:
[1] = Acute toxicity, LD50 by the Weil method, e.p. administration in mouse; conditions: in vivo, ip, Weil method N = 4, K = 4
From the text: LD50 of the compounds of general formula (I) assessed with the Weil method ("Tables for convenient calculation of median effective dose (LD50 or ED50) and instructions in their use", Biometrics, 249-253, 1952), by e.p. administration in mouse is shown in Table 1.
LD50 and fiducial limits, mg/Kg e.p., of the compounds of for-
mula (I). Weil method N = 4, K = 4.

[2] = test system: bronchial secretion; experiment: Expectorant activity: bronchial secretion in anesthetized rabbits (method of Perry et al.); format: in vivo; conditions: oral, rabbit, 20 to 40 mg
Protocol: The tests were carried out on male rabbits, weighing 2-3 Kg, anesthetized with ethyl urethane, by following the method disclosed by Perry et al. (J. Pharm. Exp. Ther. 73, 65, 1941).
Each cannula was connected to a feeding device which delivered a steady flow-rate of pre-heated air (36°-38° C.) at constant humidity (80%). At the lower end of each cannula, a graduated cylinder was fitted, wherein the bronchial secretion was collected. All of the animals breathed spontaneously and consequently they self-regulated the air intake suitable for normal respiration. After an hour following cannula insertion, the animals were administered oraly (by stomach tube) the compounds of general formula (I) dissolved in distilled water at doses comprised between 20 and 40 mg. […] The control animals (8) were given water only. The amount of secretion was determined after 1, 2 and 4 hours from administration.

[3] = Mucolytic activity in vitro: modification of human sputum density by thromboelastograph (method of Morandini et al.)
Protocol: The tests were carried out in vitro by using the method disclosed by Morandini et al. (Lotta contro la tubercolosi 47, n. 4, 1977). A thromboelastograph was used to follow the variations induced by the compounds of general formula (I) and acetylcysteine on the rheological properties of human sputum.

Structure (SMILES): CC(=O)SCCCCC(=O)OC(CC(=O)O)C[N+](C)(C)C (centres unmarked) [ST-412, 5-thioacetyl pentanoyl-carnitine]
- LD50 [1]: 1540 mg/kg
- Percentage variations ± s.e. of bronchial secretion versus basal values ([2]; 1 hour after administration): +1.3 ± 0.04 Percentage
- Percentage variations ± s.e. of bronchial secretion versus basal values ([2]; 2 hours after administration): +2.1 ± 0.05 Percentage
- Percentage variations ± s.e. of bronchial secretion versus basal values ([2]; 4 hours after administration): +3.1 ± 0.03 Percentage

Structure (SMILES): CC(=O)N[C@@H](CS)C(=O)O [Acetylcysteine, acetylcysteine]
- Percentage drop of the tracing versus maximum peak (mucolytic activity index) ([3]; after addition of 1 ml of a 10% solution at dilution 1/30): 84 Percentage
- Percentage drop of the tracing versus maximum peak (mucolytic activity index) ([3]; after addition of 1 ml of a 10% solution at dilution 1/60): 55 Percentage

Structure (SMILES): CC(=O)SC(C)CC(=O)OC(CC(=O)O)C[N+](C)(C)C (centres unmarked) [ST-406, 3-thioacetyl butyryl carnitine]
- LD50 [1]: 97 mg/kg
- Percentage variations ± s.e. of bronchial secretion versus basal values ([2]; 1 hour after administration): +1.4 ± 0.05 Percentage
- Percentage variations ± s.e. of bronchial secretion versus basal values ([2]; 2 hours after administration): +1.9 ± 0.05 Percentage
- Percentage variations ± s.e. of bronchial secretion versus basal values ([2]; 4 hours after administration): +3.4 ± 0.04 Percentage

Structure (SMILES): CC(=O)SCCC(=O)OC(CC(=O)O)C[N+](C)(C)C (centres unmarked) [ST-405, 3-thioacetyl propionyl-carnitine]
- LD50 [1]: 378 mg/kg
- Percentage variations ± s.e. of bronchial secretion versus basal values ([2]; 1 hour after administration): +1.1 ± 0.03 Percentage
- Percentage variations ± s.e. of bronchial secretion versus basal values ([2]; 2 hours after administration): +1.9 ± 0.04 Percentage
- Percentage variations ± s.e. of bronchial secretion versus basal values ([2]; 4 hours after administration): +3.6 ± 0.05 Percentage
